Measured values taken from ChEMBL document CHEMBL5661943, “ASAP - In vitro antiviral effect” (2024).

Tests used:
dengue virus type 2 = test: Functional assay to measure dose dependent changes in antiviral-drug inhibitory efficacy against Dengue virus type 2 New Guinea C in Vero E6 miRFP670 cells (cotreated with P-gp inhibitor, CP100356). Cells are treated with antiviral candidates that are serially diluted, following infection, cells are fixed. EC50 is reported via analysis of fluorescence intensity using high-content imager. The …; type: organism-based, Chlorocebus sabaeus, Vero C1008; conditions: Dengue virus
Zika virus = test: Functional CPE-based assay to measure dose dependent changes in antiviral-drug inhibitory efficacy against Zika virus MR766 in Vero E6 miRFP670 cells. Cells are treated with antiviral candidates that are serially diluted. EC50 is reported via analysis of MTS assay as a readout of CPE. The assay has been performed by KU Leuven.; type: organism-based, Chlorocebus sabaeus, Vero C1008; conditions: Zika virus

| Structure (SMILES) | EC50 (dengue virus type 2; Vero C1008) [µM] | EC50 (Zika virus; Vero C1008) [µM] | further results |
| --- | --- | --- | --- |
| CC(=O)NCc1cccc(NC(=O)c2cc(Cl)cc(NC(=O)OCc3ccccc3)c2)c1 | 10.4 | > 50 | EC90 (dengue virus type 2; Vero C1008, Baseline response 0 %, EC90 CI (lower) 4.143 uM, EC90 CI (upper) 6.94 uM, Hill slope -3.293, Maximum measured 105.977 %, Maximum response 100 %, Minimum measured 1.058 %, P-gp concentration 500 nM, R squared 0.979, P-gp inhibitor CP100356): 20.4 µM; EC90 (Zika virus; Vero C1008, Baseline response 0 %, Hill slope 0.809, Maximum measured 24.23 %, Maximum response 100 %, Minimum measured -4.371 %, R squared 0.519): > 50 µM |
| O=C(NC1CCCCC1)c1cc(Cl)ccc1NS(=O)(=O)c1ccc(Oc2ccccc2Cl)cc1 | 3.2 | > 50 | EC90 (dengue virus type 2; Vero C1008): 3.72 µM; EC90 (Zika virus; Vero C1008, Baseline response 0 %, Hill slope 0.673, Maximum measured 7.428 %, Maximum response 100 %, Minimum measured -1.415 %, R squared 0.499): > 50 µM |
| NCc1cccc(NC(=O)c2cc(Cl)cc3[nH]ncc23)c1 | > 50 | > 50 | EC90 (dengue virus type 2; Vero C1008, Maximum measured 106.767 %, Minimum measured 104.405 %, P-gp concentration 500 nM, P-gp inhibitor CP100356): > 50 µM; EC90 (Zika virus; Vero C1008, Maximum measured 0.74 %, Minimum measured -1.239 %): > 50 µM |
| NCc1cccc(NC(=O)[C@H](NC(=O)OCc2ccccc2)c2ccc(Br)c(Cl)c2)c1 | 27.9 | > 50 | EC90 (dengue virus type 2; Vero C1008, Baseline response 0 %, Hill slope -1.252, Maximum measured 107.5 %, Maximum response 100 %, Minimum measured 22.965 %, P-gp concentration 500 nM, R squared 0.543, P-gp inhibitor CP100356): > 50 µM; EC90 (Zika virus; Vero C1008, Baseline response 0 %, Hill slope 4.111, Maximum measured 16.618 %, Maximum response 100 %, Minimum measured -5.242 %, R squared 0.822): > 50 µM |
| NCc1cccc(NC(=O)c2cc(Cl)cc(C3CC3)c2)c1 | 21.6 | 15.7 | EC90 (dengue virus type 2; Vero C1008): 24.7 µM; EC90 (Zika virus; Vero C1008, Baseline response 0 %, EC90 CI (lower) 20.759 uM, EC90 CI (upper) 27.074 uM, Hill slope 5.361, Maximum measured 91.947 %, Maximum response 100 %, Minimum measured -3.838 %, R squared 0.99): 23.7 µM |
| NCc1cccc(NC(=O)[C@H](NC(=O)OCc2ccccc2)C2CCC(c3ccccc3)CC2)c1 (some centres undefined) | 6.69 | > 50 | EC90 (dengue virus type 2; Vero C1008, Baseline response 0 %, EC90 CI (lower) 1.121 uM, EC90 CI (upper) 23.089 uM, Hill slope -8.04, Maximum measured 108.249 %, Maximum response 100 %, Minimum measured 2.62 %, P-gp concentration 500 nM, R squared 0.836, P-gp inhibitor CP100356): 8.79 µM; EC90 (Zika virus; Vero C1008, Baseline response 0 %, Hill slope 12.54, Maximum measured 11.506 %, Maximum response 100 %, Minimum measured -10.271 %, R squared 0.094): > 50 µM |
| O=C(Nc1ccc(C2CNC2)cc1)c1cc(Cl)cc2[nH]ncc12 | 8.78 | > 50 | EC90 (dengue virus type 2; Vero C1008, Baseline response 0 %, EC90 CI (lower) 1.814 uM, EC90 CI (upper) 3.53 uM, Hill slope -1.767, Maximum measured 103.682 %, Maximum response 100 %, Minimum measured 12.273 %, P-gp concentration 500 nM, R squared 0.972, P-gp inhibitor CP100356): 30.4 µM; EC90 (Zika virus; Vero C1008, Maximum measured 1.247 %, Minimum measured -2.682 %): > 50 µM |
| COc1cccc(-c2ccc([C@@H](NC(=O)OCc3ccccc3)C(=O)Nc3cccc(CN)c3)cc2)c1 | 11.3 | > 50 | EC90 (dengue virus type 2; Vero C1008): 13 µM; EC90 (Zika virus; Vero C1008, Maximum measured 5.224 %, Minimum measured -9.76 %): > 50 µM |
| CNC(=O)[C@H](Nc1cc(CN)cc(C(=O)O)c1)c1cc(Cl)cc(C2CC2)c1 | > 50 | > 50 | EC90 (dengue virus type 2; Vero C1008, Maximum measured 120.74 %, Minimum measured 102.141 %, P-gp concentration 500 nM, P-gp inhibitor CP100356): > 50 µM; EC90 (Zika virus; Vero C1008, Maximum measured 1.859 %, Minimum measured -2.673 %): > 50 µM |
| O=C(Nc1cccc(-c2nnn[nH]2)c1)c1cc(Cl)cc2[nH]ncc12 | > 50 | > 50 | EC90 (dengue virus type 2; Vero C1008, Maximum measured 107.824 %, Minimum measured 101.456 %, P-gp concentration 500 nM, P-gp inhibitor CP100356): > 50 µM; EC90 (Zika virus; Vero C1008, Maximum measured 0.889 %, Minimum measured -1.258 %): > 50 µM |
| CCOCCNC(=O)c1cc(Cl)ccc1NS(=O)(=O)c1ccc(Oc2ccccc2Cl)cc1 | 7.26 | > 50 | EC90 (dengue virus type 2; Vero C1008, Baseline response 0 %, EC90 CI (lower) 5.297 uM, EC90 CI (upper) 7.186 uM, Hill slope -13.477, Maximum measured 106.241 %, Maximum response 100 %, Minimum measured 0.021 %, P-gp concentration 500 nM, R squared 0.993, P-gp inhibitor CP100356): 8.55 µM; EC90 (Zika virus; Vero C1008, Maximum measured 1.013 %, Minimum measured -2.996 %): > 50 µM |
